# Results taken from patent US20140066519A1, “USE OF XANTHOHUMOL AND/OR ISOXANTHOHUMOL AS AN AGENT FOR PREVENTING AND/OR COMBATING LIVER DISEASES” (FLAXAN GMBH & CO. KG, priority 2006, published 2014).
# Experiments:
# male C57BL/6N mice = experiment: high fat diet (NASH-inducing diet) feeding study in mice, 20 weeks (FIGS. 13-15); assay type: in vivo; conditions: 500 mg/kgBW
# Text: (§1) In vivo studies correlate with the in vitro studies. FIGS. 13-18 show comparative graphs of in vivo experimental data showing the effectiveness of xanthohumol when eating a high fat diet. The experiments involved using male C57BL/6N mice purchased from Charles River Laboratories (Sulzfeld, Germany). After two weeks of acclimatization, the mice were fed either standard diet (CTR), standard diet with xanthohumol (XN), high fat diet without providing xanthohumol (HFD), or high fat diet and xanthohumol (HFD+XN). High fat diet in the experiments included a NASH-inducing diet which includes sucrose, cholesterol, and fats rich in saturated fatty acids. In detail, the high fat diet included pork lard (15%), beef tallow (15%), palmitic acid (4%), stearic acid (4%), cholesterol (0.2%), and sucrose (30%). The feeding lasted for 20 weeks. Each experimental group had six mice. The XN and HFD+XN mice were provided with 500 mg of xanthohumol per kg of body weight (kgBW).
# [1] = tested on: Collagen Type I (Coll-I) mRNA; experiment: hepatic Coll-I mRNA expression in high fat diet mouse study (FIG. 17); assay type: in vivo; conditions: 500 mg/kgBW, 20 weeks
# Text: as §1
# (§2) FIGS. 17 and 18 show charts of the detected measurement of hepatic mRNA expressions of Collagen Type I (Coll-I) and profibrogenic factor tissue inhibitor of metalloproteinases 1 (TIMP-1), respectively, of the mice from the experiments (*: p<0.05; normalized so that CTR is set to 1). These methodologies are established markers detecting hepatic fibrosis (e.g., fibrosis of the liver). […]
# [2] = tested on: liver cancer cells (HepG2); experiment: growth of liver cancer cells (HepG2) over time as a function of xanthohumol dosage (FIG. 5); assay type: cell-based; conditions: HepG2, increasing concentrations of xanthohumol, pure form (>98%)
# [3] = tested on: liver cells infected with hepatitis C (HUH7 HCV replicon); experiment: efficacy on liver cells infected with hepatitis C vs non-infected liver cells (FIGS. 2 and 3); assay type: cell-based
# Text: Thus, use of the invention allows a targeted therapy for reduction or elimination of liver cells infected with the virus.
# liver cells = experiment: in vitro tests of fat accumulation (steatosis) in liver cells; assay type: cell-based
# Text: Another effective method of preventing NASH 102 can be performed by inhibiting inflammation 108 of the liver even when eating a high fat diet. Another effective method of preventing NASH 102 can be performed by inhibiting fibrosis 110 of the liver even when eating a high fat diet. […] Inhibition of fat accumulation, inflammation, and/or fibrosis can also be an effective treatment for slowing down or preventing further progression of the liver disease state (including NASH). […] Inhibition of the reception of fatty acids into liver cells was determined in vitro tests and in vivo experiments.
# [4] = tested on: activated hepatic stellate cells; experiment: destruction (LDH) of activated hepatic stellate cells (FIG. 8); assay type: cell-based; conditions: increasing dosage of xanthohumol
# hepatic stellate cells = experiment: transformation of quiescent hepatic stellate cells to activated hepatic stellate cells (FIGS. 6 and 7); assay type: cell-based; conditions: hepatic stellate cell activation, increasing dosage of xanthohumol
# Text: FIGS. 6 and 7 illustrate the effect of addition of xanthohumol for the prevention of transformation of the body's own physiologically “quiescent” (non-activated) hepatic stellate cells to activated hepatic stellate cells.
# FIGS. 6 and 7 illustrate the effect of addition of xanthohumol for the prevention of transformation of the body's own, physiologically “quiescent” (non-activated) hepatic stellate cells to activated hepatic stellate cells, which are responsible for scarring of the liver in cirrhosis of the liver.
# [5] = tested on: proinflammatory cytokine tumor necrosis factor (TNF) mRNA; experiment: hepatic TNF mRNA expression in high fat diet mouse study (FIG. 16); assay type: in vivo; conditions: 500 mg/kgBW, 20 weeks
# Text: as §1
# The TNF measurement is an indicator of inflammation in the liver. The mice that ate high fat diet (HFD) had the highest level of TNF mRNA. […] The reduction was by more than 50% of the HFD mice, such that the TNF mRNA of the HFD+XN mice had nearly the same TNF mRNA level as the control mice (CTR). […]
# [6] = tested on: tissue inhibitor of metalloproteinases 1 (TIMP-1) mRNA; experiment: hepatic TIMP-1 mRNA expression in high fat diet mouse study (FIG. 18); assay type: in vivo; conditions: 500 mg/kgBW, 20 weeks
# Text: as §1, §2
# [7] = standard diet with xanthohumol (XN)
# [8] = standard diet with xanthohumol (XN), mice
structure (smiles),measurement,setting,value
COc1cc(O)c(CC=C(C)C)c(O)c1C(=O)/C=C/c1ccc(O)cc1 [xanthohumol],reduction of ALT level compared to HFD mice,male C57BL/6N mice; HFD+XN,~50%
same,reduction of hepatic TG (mg(TG)/mg(protein)) compared to high fat diet without xanthohumol,male C57BL/6N mice; HFD+XN,more than 50%
same,ALT level,male C57BL/6N mice; [7],lowest detected levels
same,hepatic TG (mg(TG)/mg(protein)) level,male C57BL/6N mice; [7],lowest detected levels
same,hepatic Coll-I mRNA compared to HFD mice,[1]; HFD+XN,substantial reductions
same,hepatic Coll-I mRNA level,[1]; [8],about the same as the control mice
same,growth of the cancer cells,[2],progressively inhibited
same,destruction of liver cells affected by the virus vs healthy liver cells,[3]; healthy liver cells left undamaged,selective destruction
same,replication of the virus,[3]; hepatitis B and C viral damage to the liver,inhibit replication of the virus
same,viability of the liver cells,liver cells; in vitro,does not affect the viability
same,reception of fatty acids into liver cells (formation of steatosis),liver cells; in vitro tests and in vivo experiments,directly inhibits
same,fatty degeneration of liver cells,"liver cells; in vitro, increased amount of xanthohumol",lessens fatty degeneration
same,destruction (LDH) of activated hepatic stellate cells,[4],increased effect of destruction
same,formation of scar tissue,hepatic stellate cells,increasingly suppressed
same,reduction of TNF mRNA compared to HFD mice,[5]; HFD+XN,more than 50%
same,TNF mRNA level,[5]; [8],lowest detected levels
same,hepatic TIMP-1 mRNA compared to HFD mice,[6]; HFD+XN,substantial reductions
same,hepatic TIMP-1 mRNA level,[6]; [8],about the same as the control mice
